Data: patent US10785979B2, “Substituted ketoxime benzoylamides” (Bayer CropScience Aktiengesellschaft, priority 2015, dated 2020)

Key:
different harmful plants [1] = experiment: Post-emergence comparative tests versus known compounds from WO 2013/064459 A1 (D1); type: in vivo; settings: visual assessment after about 3 weeks; for Herbicidal efficacy against MATIN: Matricaria inodora; for Herbicidal efficacy against VIOTR: Viola tricolor; for Herbicidal efficacy against ALOMY: Alopecurus myosuroides
Procedure: Seeds of monocotyledonous and dicotyledonous weed and crop plants are laid out in sandy loam soil in wood-fiber pots, covered with soil and cultivated in a greenhouse under good growth conditions. 2 to 3 weeks after sowing, the test plants are treated at the one-leaf stage. The compounds of the invention, formulated in the form of wettable powders (WP) or as emulsion concentrates (EC), are then sprayed onto the green parts of the plants in the form of an aqueous suspension or emulsion at a water application rate equating to 600 to 800 I/ha, with addition of 0.2% wetting agent. After the test plants have been left to stand in the greenhouse under optimal growth conditions for about 3 weeks, the action of the preparations is assessed visually in comparison to untreated controls (herbicidal action in percent (%): 100% activity=the plants have died, 0% activity=like control plants). In this case, for example, compound Nos. 1-15, 1-71, 1-74, 2-15, 2-19, 2-67, 2-71, 2-74, 2-136, 3-15, 3-19, 4-19, 4-136, 5-15, 7-15, 7-19, 7-74, 8-1, 8-25, 8-26, 9-5, 9-25, 10-5 and 10-5, at an application rate of 80 g/ha, each show at least 80% efficacy against Abutilon theophrasti and Veronica persica.
(§1) 3. Comparative Experiments
(§2) In addition, comparative tests were conducted under the conditions specified above on different harmful plants between inventive compounds and the most structurally similar known compounds from WO 2013/064459 A1 (D1). The results listed in the tables which follow show the superiority of these compounds of the invention.
(§3) The abbreviations used here mean:
Post-Emergence Comparative Tests

different harmful plants [2] = experiment: Pre-emergence comparative tests versus known compounds from WO 2013/064459 A1 (D1); type: in vivo; settings: visual scoring after 3 weeks; for Herbicidal efficacy against AVEFA: Avena fatua; for Herbicidal efficacy against CYPES: Cyperus esculentus; for Herbicidal efficacy against VIOTR: Viola tricolor; for Herbicidal efficacy against STEME: Stellaria media; for Herbicidal efficacy against ECHCG: Echinochloa crus galli; for Herbicidal efficacy against POLCO: Polygonum convolvulus
Text: Seeds of monocotyledonous and dicotyledonous weed plants and crop plants are laid out in wood-fiber pots in sandy loam and covered with soil. The compounds of the invention, formulated in the form of wettable powders (WP) or as emulsion concentrates (EC), are then applied to the surface of the covering soil in the form of an aqueous suspension or emulsion at a water application rate equating to 600 to 800 I/ha, with addition of 0.2% wetting agent. After the treatment, the pots are placed in a greenhouse and kept under good growth conditions for the trial plants. The damage to the test plants is scored visually after a test period of 3 weeks by comparison with untreated controls (herbicidal activity in percent (%): 100% activity=the plants have died, 0% activity=like control plants). In this case, for example, compound Nos. 1-15, 1-71, 1-74, 2-15, 2-19, 2-67, 2-71, 2-74, 2-136, 3-15, 3-19, 4-74, 5-15, 5-67, 5-71, 5-74, 6-15, 6-19, 6-67, 6-71, 6-74, 7-15, 7-19, 7-71, 7-74, 8-1, 8-25, 9-5, 9-25, 10-5 and 12-25, at an application rate of 320 g/ha, each show at least 80% efficacy against Abutilon theophrasti and Veronica persica.
as §1, §2, §3
Pre-Emergence Comparative Tests

SMILES | Herbicidal efficacy against AVEFA (different harmful plants [2]; 320 g a.i./ha) [%] | Herbicidal efficacy against VIOTR (different harmful plants [2]; 320 g a.i./ha) [%] | Herbicidal efficacy against MATIN (different harmful plants [1]; 80 g a.i./ha) [%] | Herbicidal efficacy against VIOTR (different harmful plants [1]; 80 g a.i./ha) [%] | also measured
CCON=C(C)c1c(Cl)ccc(C(=O)Nc2nnnn2C)c1Cl (single isomer, unassigned) [1-5] | 90 | 100 |  |  | Herbicidal efficacy against MATIN (different harmful plants [1]; 20 g a.i./ha): 90%; Herbicidal efficacy against VIOTR (different harmful plants [1]; 20 g a.i./ha): 90%; Herbicidal efficacy against CYPES (different harmful plants [2]; 320 g a.i./ha): 90%
CC(=NOCC1CC1)c1c(Cl)ccc(C(=O)Nc2nnnn2C)c1Cl (single isomer, unassigned) [1-8] | 90 | 100 | 100 |  | Herbicidal efficacy against ALOMY (different harmful plants [1]; 80 g a.i./ha): 70%; Herbicidal efficacy against STEME (different harmful plants [2]; 320 g a.i./ha): 100%
CCn1nnnc1NC(=O)c1ccc(Cl)c(C(C)=NOC)c1Cl (single isomer, unassigned) [2-1] | 100 | 100 |  | 100 | Herbicidal efficacy against ALOMY (different harmful plants [1]; 80 g a.i./ha): 60%; Herbicidal efficacy against CYPES (different harmful plants [2]; 320 g a.i./ha): 100%
CCCn1nnnc1NC(=O)c1ccc(Cl)c(C(C)=NOC)c1Cl (single isomer, unassigned) [3-1] | 80 | 100 |  |  | Herbicidal efficacy against MATIN (different harmful plants [1]; 20 g a.i./ha): 80%; Herbicidal efficacy against VIOTR (different harmful plants [1]; 20 g a.i./ha): 100%; Herbicidal efficacy against CYPES (different harmful plants [2]; 320 g a.i./ha): 100%
CCCn1nnnc1NC(=O)c1ccc(Cl)c(C(C)=NOCC)c1Cl (single isomer, unassigned) [3-5] | 70 | 100 | 90 | 100 | Herbicidal efficacy against STEME (different harmful plants [2]; 320 g a.i./ha): 100%
CCCn1nnnc1NC(=O)c1ccc(Cl)c(C(C)=NOCC2CC2)c1Cl (single isomer, unassigned) [3-8] |  |  | 70 | 80 | 
CCCn1nnnc1NC(=O)c1ccc(S(C)(=O)=O)c(C(C)=NOC)c1Cl (single isomer, unassigned) [3-15] |  |  |  |  | Herbicidal efficacy against MATIN (different harmful plants [1]; 20 g a.i./ha): 90%; Herbicidal efficacy against VIOTR (different harmful plants [1]; 20 g a.i./ha): 90%
CCCn1nnnc1NC(=O)c1ccc(S(C)(=O)=O)c(C(C)=NOCC)c1Cl (single isomer, unassigned) [3-19] |  |  |  | 100 | Herbicidal efficacy against ALOMY (different harmful plants [1]; 80 g a.i./ha): 50%; Herbicidal efficacy against CYPES (different harmful plants [2]; 80 g a.i./ha): 80%; Herbicidal efficacy against ECHCG (different harmful plants [2]; 80 g a.i./ha): 90%; Herbicidal efficacy against VIOTR (different harmful plants [2]; 80 g a.i./ha): 100%
CCON=C(C)c1c(Cl)ccc(C(=O)Nc2ncnn2C)c1Cl (single isomer, unassigned) [4-5] |  | 100 |  | 90 | Herbicidal efficacy against ALOMY (different harmful plants [1]; 80 g a.i./ha): 30%; Herbicidal efficacy against ECHCG (different harmful plants [2]; 320 g a.i./ha): 90%; Herbicidal efficacy against STEME (different harmful plants [2]; 320 g a.i./ha): 80%
CCON=C(C)c1c(S(C)(=O)=O)ccc(C(=O)Nc2ncnn2C)c1Cl (single isomer, unassigned) [4-19] |  |  |  |  | Herbicidal efficacy against ALOMY (different harmful plants [1]; 20 g a.i./ha): 80%; Herbicidal efficacy against VIOTR (different harmful plants [1]; 20 g a.i./ha): 100%
CON=C(C)c1c(Cl)ccc(C(=O)Nc2nonc2C)c1Cl (single isomer, unassigned) [6-1] |  |  |  |  | Herbicidal efficacy against ECHCG (different harmful plants [2]; 320 g a.i./ha): 60%; Herbicidal efficacy against POLCO (different harmful plants [2]; 320 g a.i./ha): 40%; Herbicidal efficacy against STEME (different harmful plants [2]; 320 g a.i./ha): 60%
CON=C(C)c1c(S(C)(=O)=O)ccc(C(=O)Nc2nonc2C)c1Cl (single isomer, unassigned) [6-15] |  |  | 80 | 100 | 
CCON=C(C)c1c(S(C)(=O)=O)ccc(C(=O)Nc2nonc2C)c1Cl (single isomer, unassigned) [6-19] | 30 | 100 | 70 | 100 | Herbicidal efficacy against CYPES (different harmful plants [2]; 320 g a.i./ha): 80%
CCCn1nnnc1NC(=O)c1ccc(S(C)(=O)=O)c(C(C)=NOC)c1Cl (single isomer, unassigned) [10-5] |  |  | 100 |  | Herbicidal efficacy against ALOMY (different harmful plants [1]; 80 g a.i./ha): 60%
CCCn1nnnc1NC(=O)c1ccc(S(C)(=O)=O)c(C(C)=NOCC)c1Cl (single isomer, unassigned) [10-6] | 40 | 100 |  |  | Herbicidal efficacy against MATIN (different harmful plants [1]; 20 g a.i./ha): 90%; Herbicidal efficacy against VIOTR (different harmful plants [1]; 20 g a.i./ha): 100%; Herbicidal efficacy against POLCO (different harmful plants [2]; 320 g a.i./ha): 60%
CON=C(C)c1c(S(C)(=O)=O)ccc(C(=O)Nc2nonc2C)c1Cl (single isomer, unassigned) [13-5] |  |  | 60 | 90 | 
CCON=C(C)c1c(S(C)(=O)=O)ccc(C(=O)Nc2nonc2C)c1Cl (single isomer, unassigned) [13-6] | 60 | 100 | 60 | 100 | Herbicidal efficacy against CYPES (different harmful plants [2]; 320 g a.i./ha): 60%
